Assay results from patent US20140309221A1, “METHOD OF INHIBITING HAMARTOMA TUMOR CELLS” (DANA-FARBER CANCER INSTITUTE, INC., priority 2011, published 2014).
Entries after “also recorded” stand apart in the source; their conditions may differ.

Legend:
[1] = tested on: PHTS symptoms in K14-cre-Pten f/f mice; assay: Early administration: prevention of PHTS symptom development in K14-cre-Pten f/f mice; format: in vivo; conditions: 25 mg/kg daily by oral gavage beginning at 3 weeks of age
Method: (§1) 4-(Trifluoromethyl)-5-(2,6-dimorpholinopyrimidin-4-yl)pyridin-2-amine powder was dissolved in 1 volume of NMP (1-methyl-2-pyrrolidone). After dissolution (if needed, in warm water), add 9 volumes of PEG300. The final ratio is: NMP 10%/PEG300 90%.
Pten f/f mice (Lesche, R., et al., Cre/loxP-mediated inactivation of the murine Pten tumor suppressor gene. Genesis, 2002. 32(2): 148-9) were crossed with K14-cre mice (Jonkers, J., et al., Synergistic tumor suppressor activity of BRCA2 and p53 in a conditional mouse model for breast cancer. Nat Genet, 2001. 29(4): 418-25) to generate K14-Cre Pten f/f mice in which the floxed Pten allele is deleted specifically in the keratinocytes by the K14-driven Cre recombinase. […]
K14-cre-Pten f/f mice were treated daily with 25 mg/kg 4-(trifluoromethyl)-5-(2,6-dimorpholinopyrimidin-4-yl)pyridin-2-amine by oral gavage beginning at 3 weeks of age and the development of PHTS symptoms monitored. […]

[2] = tested on: PHTS symptoms in K14-cre-Pten f/f mice; assay: Administration to K14-cre-Pten f/f mice with fully developed PHTS: relief of symptoms; format: in vivo
Method: as §1
Pten f/f mice (Lesche, R., et al., Cre/loxP-mediated inactivation of the murine Pten tumor suppressor gene. Genesis, 2002. 32(2): 148-9) were crossed with K14-cre mice (Jonkers, J., et al., Synergistic tumor suppressor activity of BRCA2 and p53 in a conditional mouse model for breast cancer. Nat Genet, 2001. 29(4): 418-25) to generate K14-Cre Pten f/f mice in which the floxed Pten allele is deleted specifically in the keratinocytes by the K14-driven Cre recombinase. These mice were further crossed with p110a f/f (Zhao, J. J., et al., The p110 alpha isoform of PI3K is essential for proper growth factor signaling and oncogenic transformation. Proc Natl Acad Sci USA, 2006. 103(44): 16296-300) and p110b f/f mice (Jia, S., et al., Essential roles of PI(3)K-p110beta in cell growth, metabolism and tumorigenesis. Nature, 2008) to generate K14-cre Pten f/f, K14-cre Pten f/f; p110a f/f, K14-cre Pten f/f; p110b f/f, and K14-cre-Pten f/f; p110a f/f; p110b f/f mice. Keratinocyte-specific deletion of Pten results in multiple dermal lesions in the K14-cre Ptenf/f mice that resemble multiple skin hamartomas of PHTS. […]

Nc1cc(C(F)(F)F)c(-c2cc(N3CCOCC3)nc(N3CCOCC3)n2)cn1 [COMPOUND A, 4-(trifluoromethyl)-5-(2,6-dimorpholinopyrimidin-4-yl)pyridin-2-amine]
development of PHTS symptoms (PHTS free survival) ([1]; n=12): remained free of PHTS symptoms | development of PHTS symptoms (PHTS free survival) ([1]; n=12, listed as 4-(trifluoromethyl)-5-(2,6-dimorpholinopyrimidin-4-yl)pyridin-2-amine): remained free of PHTS symptoms; also recorded: entirely blocked appearance of PHTS | relief of PHTS symptoms ([2]; K14-cre-Pten f/f mice with fully developed PHTS (12-14 weeks of age), 45 mg/kg daily by oral gavage for 4 weeks, 45 mg/kg): dramatically relieved the PHTS symptoms; also recorded: completely reversed the phenotype of PHST | PHTS symptoms at the end of the 4-week treatment ([2]; K14-cre-Pten f/f mice with fully developed PHTS, 45 mg/kg daily by oral gavage, end of 4 weeks): substantially or completely reduced
